Where “and” joins values, the source holds several entries; their conditions need not be identical. Identical values can stand only once.
Target: T1, Thromboxane A2 receptor (Homo sapiens, UniProt P21731)
T1 sequence (P21731 whole entry): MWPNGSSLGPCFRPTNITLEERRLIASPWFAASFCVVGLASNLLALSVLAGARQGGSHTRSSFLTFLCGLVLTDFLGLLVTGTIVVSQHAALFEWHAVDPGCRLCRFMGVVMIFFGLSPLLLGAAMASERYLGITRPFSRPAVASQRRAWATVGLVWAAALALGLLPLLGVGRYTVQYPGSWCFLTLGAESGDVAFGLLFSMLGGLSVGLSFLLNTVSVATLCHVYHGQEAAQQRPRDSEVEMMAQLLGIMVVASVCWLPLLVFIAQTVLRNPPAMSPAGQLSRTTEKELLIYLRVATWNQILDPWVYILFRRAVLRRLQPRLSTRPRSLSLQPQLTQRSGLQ

Ki | Structure (SMILES)
49.6 nM and 28.3 nM | CCCCCCC(=O)NCC(=O)NCC1C2CCC(O2)C1CC=CCCCC(=O)O (centres undefined) [CAS_119571]
7.1 nM and 4.4 nM | CCCCCC(O)C=CC1C2COC(C2)C1CC=CCCCC(=O)O (centres undefined) [NSC_114865]
72.7 nM and 31.8 nM | CC(c1ccccc1)C(O)C=CC1C2CCC(O2)C1CC=CCCCC(=O)O (centres undefined) [NSC_3036123]
18.7 nM and 3.6 nM | CCCCC[C@H](O)/C=C/C1[C@@H](C/C=C\CCCC(=O)O)[C@H]2CO[C@@H]1C2 (some centres undefined) [U46619]
